Measurements: paper PMC11833736 (ACS Pharmacology & Translational Science, 2025)
Where “and” joins values, the source holds several entries; their conditions need not be identical. Equal entries are not always repeated.

Tests used:
[1] = test system: SH-SY5Y cells; assay: Intracellular Ca content by ICP-MS, dark or green light; format: cell-based; conditions: kept in the dark
Method: Six hours after compound addition, the cells were irradiated with green light or kept in the dark. Intracellular Ca^2+ levels were then assessed by ICP-MS 24 h after light activation. The NMDA and α-amino-3-hydroxy-5-methyl-4-isoxazole propionic acid (AMPA) receptors being glutamate-gated cation channels allow for an increase of calcium permeability of the neuron membrane; we also used L-glutamic acid (GA, 10 μM), a known NMDA and AMPA activator, as positive control in this assay.
(§1) 1 mL of SH-SY5Y cells were seeded in 12-well plates (Greiner, No. 665180; 500.000 cells per well). […] After an additional 24 h of incubation, the cells were trypsined, collected, and centrifuged. The resulting cell pellet was dissolved in 1 mL of PBS and counted via a BioRad TC20 automated cell counter. Afterward, the solution was centrifuged and washed again with PBS with subsequent centrifuging two more times. The resulting cell pellet was digested in 0.5 mL of HNO3 overnight in a hot oven (90 °C). The solution was diluted with Milli-Q water to 10 mL, and the Ru and Ca content [ppb] was measured via ICP-MS.

[2] = test system: SH-SY5Y cells; assay: Ru cellular uptake by ICP-MS, dark or green light; format: in vitro ADME; conditions: 20 μM, kept in the dark
Method: These surprising results led us to further investigate whether the uptake of the respective compounds plays a pivotal role in the alternation of the proliferation. […] The complex was allowed to incubate for 24 h after irradiation before the ruthenium cellular content was analyzed by ICP-MS. […] We finally decided to incubate the SH-SY5Y cells with the EC50 values obtained from the cytotoxicity experiment using the U-87MG cell, as those procedures would allow one to observe the effect of the prodrug on the healthy neuron-like cells when treated with the phototoxic compound dose. […] Overall, cellular uptake in neuron-like SH-SY5Y cells followed the same trends as those for GBM cells U-87MG in the dark, while uptake was much higher after light activation.
as §1

[3] = Stability in the dark in the presence of L-glutathione (UV-vis); format: physicochemical; conditions: water, 37 °C, 500 μM L-glutathione, spectra after 2 and 24 h
Method: The synthesis and characterization of all three complexes have been described earlier and can be found in refs ([56]) and ([57]). In water or OptiMEM cell medium, the complexes were also previously found to be stable in the dark for at least 24 h at 37 °C. Upon blue or green light irradiation (λ = 452 or 517 nm), they are activated by photosubstitution of the thioether ligand to afford the aqua ruthenium complex and the free thioether ligand.[56] […] The UV–vis spectra were then recorded after 2 and 24 h separately. […] Additionally, we could not observe any color change, which is typical when one of the ligands is exchanged against another one.
UV–vis spectroscopy experiments were performed on a Cary 60 Varian spectrometer equipped with a temperature control set to 310 K and a magnetic stirrer. The measurements were performed in a quartz cuvette containing 3 mL of solution. […] Then, the UV–vis spectrum was recorded without the presence of GSH. After 4 min, GSH was added (0.5 mM) and UV–vis spectra were recorded directly after and after 2 and 24 h, while the vial was kept in the dark and at 37 °C.

[4] = test system: U-87MG glioblastoma cells; assay: Cytotoxicity, SRB end-point assay, dark or green light; conditions: read-out: EC50,D, kept in the dark, 24 h + 48 h incubation, normoxic (21% O2)
[5] = molecular target: AChE (Electrophorus electricus, UniProt O42275)
Chain of AChE (O42275 24-633): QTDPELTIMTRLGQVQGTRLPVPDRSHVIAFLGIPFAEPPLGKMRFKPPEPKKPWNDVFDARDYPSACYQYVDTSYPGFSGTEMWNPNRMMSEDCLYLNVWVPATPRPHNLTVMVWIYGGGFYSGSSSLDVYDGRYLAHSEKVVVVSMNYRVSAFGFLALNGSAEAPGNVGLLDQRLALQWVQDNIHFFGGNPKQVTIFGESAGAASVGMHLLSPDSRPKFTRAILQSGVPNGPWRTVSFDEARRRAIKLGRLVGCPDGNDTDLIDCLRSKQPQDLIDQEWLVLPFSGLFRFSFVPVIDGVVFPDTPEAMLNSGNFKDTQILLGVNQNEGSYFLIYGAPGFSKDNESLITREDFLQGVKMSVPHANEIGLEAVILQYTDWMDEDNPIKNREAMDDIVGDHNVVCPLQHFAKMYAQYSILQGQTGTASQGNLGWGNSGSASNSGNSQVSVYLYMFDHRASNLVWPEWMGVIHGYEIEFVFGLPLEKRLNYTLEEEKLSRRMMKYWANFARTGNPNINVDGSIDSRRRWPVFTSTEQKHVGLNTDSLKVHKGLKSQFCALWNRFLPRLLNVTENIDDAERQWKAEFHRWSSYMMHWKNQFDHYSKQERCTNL
Description: Among all enzymes involved in transmembrane signaling, another important one is AChE. In a modified procedure (for further details, see the Experimental Section), we checked whether the ruthenium complexes were able to inhibit AChE in the dark and after light activation. The colorimetric assay used Ellman’s reagent. […] The conversion of 5,5′-dithiobis(2-nitrobenzoic acid) (DTNB) to yellow 2-nitro-5-thiobenzoate (TNB) initiated by the addition of acetylthiocholine was then detected by UV–vis spectroscopy every 5 min for a total time of […]. […] The solution was further diluted 1:50 in 50 mM Tris buffer, pH = 8 (10 μL in 490 μL), and then placed in 4.5 mL of 50 mM Tris buffer, pH = 8. […] 50 μL of the enzyme and 50 μL of the complex solution were added to a 96-well plate in triplicates. […] Meanwhile, a 10 mM solution of acetylthiocholine iodide and 10 mM DTNB was prepared. After the respective time, in each well, 5 μL of the acetylthiocholine iodide and DTNB mixture was added. The absorbance was read at a microplate Tecan reader at 410 nm every 5 min for in total 40 min.

[6] = test system: U-87MG cells; assay: Ru cellular uptake by ICP-MS; format: in vitro ADME; conditions: 10 μM; for Ru cellular uptake: dark
Description: The cellular accumulation of Ru^2+ can provide additional information about how differences in anticancer efficacy may relate to the amount of the Ru prodrug in the cell before light activation. For instance, low uptake often leads to limited cytotoxicity due to limited access to the drug target. […] Similar results have been observed in A549 lung cancer cells previously.[56] […] For unknown reasons, it appears that the amine bridge in the i-diqa ligand facilitates the uptake of ruthenium compound [3](PF6)2.
Materials: 65% nitric acid (Suprapur, Merck) was used in the sample digestion process, while diluted 1% nitric acid (v/v) was employed as a carrying solution throughout the ICP measurements. For preparation of calibration and internal standards, National Institute of Standards and Technology (NIST)-traceable 1000 mg/L elemental standards were used (TraceCERT, Fluka). Approximately 18 MΩ cm^–1 water (Milli-Q) was employed in all sample preparation and analysis steps.
Instrumentation: Calibration standards were prepared in a Secuflow fume hood (SCALA) to prevent contamination by atmospheric particulates. The standard samples and measurement samples were analyzed for trace elements using the NexION 2000 (PerkinElmer) ICP-MS instrument equipped with a concentric glass nebulizer and a Peltier-cooled glass spray chamber. An SC2 DX autosampler (PerkinElmer) was connected to ICP-MS for sample introduction. Syngistix software for ICP-MS (v.2.5, PerkinElmer) was used for all data recording and processing. Five trace elemental calibration standards for ICP-MS analysis were prepared using NIST-traceable 1000 mg/L Ru standards: 0, 1, 5, 20, and 100 μg/L. Samples were analyzed without dilution in the original delivery containers to minimize the possibility of contamination. Here, 10 μg/L Rh and In were used as internal standards. To check the calibration, samples were analyzed with a blank measurement and a repeat measurement with one of the calibration standards.
Sample preparation: 1 mL of U-87MG cells were seeded in 12-well plates (Greiner, No. 665180; 400.000 cells per well). […] Afterward, the cells were trypsined, collected, and centrifuged. The resulting cell pellet was dissolved in 1 mL of PBS and counted via a BioRad TC20 automated cell counter. Afterward, the solution was centrifuged and washed again with PBS with subsequent centrifuging. This washing step was repeated twice. The resulting cell pellet was digested in 0.5 mL of 65% HNO3 overnight in a hot oven (90 °C). The solution was diluted with Milli-Q water to 10 mL, and the Ru content [ppb] was measured by ICP-MS.

[7] = test system: SH-SY5Y cells; assay: Cytotoxicity, SRB end-point assay, dark or green light; format: cell-based
[8] = test system: A549 lung cancer cell lines; design: method as in PMID 31625740, PMID 29220545, PMID 34378103; conditions: cited from earlier work
[9] = test system: A375 skin melanoma; design: method as in PMID 31625740, PMID 29220545, PMID 34378103; conditions: cited from earlier work
[10] = test system: U-87MG glioblastoma cells; assay: Cytotoxicity determined by MTT (3 mg/mL); format: cell-based; conditions: Homo sapiens, dark

## N[C@@H](CCC(=O)O)C(=O)O [L-glutamic acid, reference compound]
[1]; 10 μM
  Ca uptake, Dark: 322.84± 53 ng Ca/mio. cells
[1]; 10 μM, listed as Glutamate
  Ca uptake, Dark: 322 ng Ca/mio. cells

## CSCCO.F[P-](F)(F)(F)(F)F.F[P-](F)(F)(F)(F)F.[Ru+2].c1ccc(-c2cccc(-c3ccccn3)n2)nc1.c1ccc(-c2ccccn2)nc1 [[1](PF6)2]
[2]
  Ru uptake, Dark: 0.40 ± 0.25 ng Ru/mio. cells and 0.4 ng Ru/mio. cells
[3]
  stability in the dark with GSH (UV-vis, in words): no change suggesting ligand exchange on ruthenium was observed
[4]
  EC50: > 100 µM
[5]; AChE, IC50 dark / IC50 green light
  PI: >2.2
[5]; read-out: IC50,D, isolated AChE, 30 min in the dark, read 35 min after DTNB addition
  IC50: > 15 µM
[6]; 6 h
  Uptake in %: 0.56%
[6]; 6 h incubation
  Ru cellular uptake: 0.6 ng Ru/mio. cells and 0.60 ± 0.38 ng Ru/mio. cells
[6]; 24 h
  Uptake in %: 0.43%
[6]; 24 h incubation
  Ru cellular uptake: 0.42 ng Ru/mio. cells and 0.42 ± 0.11 ng Ru/mio. cells
[6]; one figure given for 6 and 24 h
  overall uptake: 0.5%
[7]; in the dark
  concentration required to block cell growth: > 40 µM
[7]; kept in the dark, SRB, normoxic (21% O2)
  EC50: > 100 µM
[1]; 20 μM
  Ca uptake, Dark: 467.78 ± 122 ng Ca/mio. cells and 467 ng Ca/mio. cells

## O.[Ru+2].c1ccc(-c2cccc(-c3ccccn3)n2)nc1.c1ccc(-c2ccccn2)nc1 [[4]^2+, [Ru(tpy)(bpy)(OH2)]^2+]
[8]
  toxicity (in words): nontoxic
[9]
  toxicity (in words): nontoxic

## Cn1nnc2c(C(N)=O)ncn2c1=O [temozolomide]
[10]
  EC50: > 100 µM
